Laboratory results: the supplement of paper PMC10307832

How the values were obtained:
Assay in all cases: relative viability (nuclei count vs DMSO), 5 days (fraction); higher = more cells survive
[1] = compound: Cc1nc(Nc2ncc(C(=O)Nc3c(C)cccc3Cl)s2)cc(N2CCN(CCO)CC2)n1 [Dasatinib] + CC(C)C[C@H](NC(=O)[C@H](Cc1ccccc1)NC(=O)c1cnccn1)B(O)O [Bortezomib] (partner 0.002 µM)
Procedure, shortened: (§1)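 Lung cancer cell lines, seeded in 1536-well plates, were treated the following day by pin tool with a single drug or with five library-drug doses (not always all listed) in √10 steps on top of a fixed anchor-drug dose. Cells were fixed and nuclei stained in one step after 5 days, and nuclei were counted. Relative viability is the nuclei count for treated wells divided by that for vehicle wells, reported as medians of duplicate plates.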

[2] = compound: Cc1ccc(C(=O)Nc2cccc(C(F)(F)F)c2)cc1Nc1cncc(C(N)=O)c1 [ALW-II-49-7] + O=C(c1cc(Cc2n[nH]c(=O)c3ccccc23)ccc1F)N1CCN(C(=O)C2CC2)CC1 [Olaparib] (partner 8 µM)
Procedure, shortened: as §1

[3] = compound: Cc1ccc(C(=O)Nc2cccc(C(F)(F)F)c2)cc1Nc1cncc(C(N)=O)c1 [ALW-II-49-7] + Cc1cc(Nc2cc(N3CCN(C)CC3)nc(Sc3ccc(NC(=O)C4CC4)cc3)n2)n[nH]1 [Tozasertib] (partner 0.1 µM)
Procedure, shortened: as §1

[4] = compound: Cc1nc(Nc2ncc(C(=O)Nc3c(C)cccc3Cl)s2)cc(N2CCN(CCO)CC2)n1 [Dasatinib] + Cc1cc(Nc2cc(N3CCN(C)CC3)nc(Sc3ccc(NC(=O)C4CC4)cc3)n2)n[nH]1 [Tozasertib] (partner 0.1 µM)
Procedure, shortened: as §1

Cell Line	relative viability ([1]; first compound 0.005 µM)	relative viability ([1]; first compound 0.01581 µM)	relative viability ([1]; first compound 0.05 µM)	relative viability ([1]; first compound 0.1581 µM)	relative viability ([1]; first compound 0.5 µM)	relative viability ([2]; first compound 0.08 µM)	relative viability ([2]; first compound 0.253 µM)	relative viability ([2]; first compound 0.8 µM)	relative viability ([2]; first compound 2.53 µM)	relative viability ([2]; first compound 8 µM)	relative viability ([3]; first compound 0.08 µM)	relative viability ([3]; first compound 0.253 µM)	relative viability ([3]; first compound 0.8 µM)	relative viability ([3]; first compound 2.53 µM)	relative viability ([3]; first compound 8 µM)	relative viability ([4]; first compound 0.005 µM)	relative viability ([4]; first compound 0.01581 µM)	relative viability ([4]; first compound 0.05 µM)	relative viability ([4]; first compound 0.1581 µM)	relative viability ([4]; first compound 0.5 µM)
NCI-H2087	0.751	0.769	0.869	0.815	0.665	0.583	0.569	0.463	0.578	0.514	0.222	0.266	0.271	0.162	0.16	0.289	0.21	0.246	0.185	0.113
COR-L 105	0.611	0.51	0.498	0.318	0.273	0.646	0.626	0.781	0.663	0.578	0.38	0.263	0.346	0.336	0.315	0.375	0.299	0.332	0.228	0.208
LCLC-97TM1	0.525	0.561	0.735	0.665	0.461	0.429	0.442	0.399	0.279	0.353	0.151	0.188	0.192	0.168	0.18	0.187	0.211	0.244	0.217	0.159
NCI-H520	0.588	0.22	0.358	0.146	0.178	0.306	0.339	0.33	0.31	0.328	0.504	0.463	0.482	0.31	0.328	0.356	0.284	0.294	0.239	0.179
NCI-H1993	0.743	0.851	1.34	0.847	0.497	1.01	1.02	0.928	1.06	1.32	0.524	0.605	0.567	0.629	0.632	0.524	0.435	0.563	0.448	0.377
NCI-H1437	0.509	0.363	0.469	0.487	0.138	0.611	0.631	0.658	0.647	0.601	0.35	0.387	0.383	0.41	0.391	0.431	0.38	0.394	0.32	0.314
LC-2-ad	0.582	0.985	1.01	0.871	0.36	0.736	0.793	0.682	0.721	0.343	0.405	0.428	0.431	0.209	0.434	0.421	0.366	0.315	0.271	0.249
NCI-H522						0.764	0.547	0.734	0.635	0.742	0.622	0.499	0.554	0.507	0.647	0.568	0.483	0.539	0.466	0.437
NCI-H1563	0.703	0.607	0.632	0.647	0.562															
NCI-H1703	0.285	0.22	0.247	0.18	0.121	0.492	0.398	0.358	0.245	0.245										
SK-MES-1						0.548	0.815	0.746	0.527	0.418	0.878	0.986	0.843	0.844	0.568	0.972	1.02	0.938	0.556	0.22
NCI-H1944						0.451	0.391	0.381	0.375	0.374	0.234	0.249	0.251	0.246	0.254	0.259	0.223	0.201	0.111	0.104
NCI-H2170						0.76	0.595	0.562	0.535	0.603	0.724	0.817	0.73	0.618	0.767	0.698	0.622	0.722	0.564	0.247
NCI-H1792	0.932	0.897	0.898	0.681	0.505	0.501	0.384	0.6	0.327	0.342										
NCI-H1648						1.52	0.684	0.656	0.48	0.808	0.382	0.236	0.243	0.313	0.382	0.624	0.545	0.327	0.233	0.14
EBC-1	0.583	0.459	0.486	0.49	0.436	0.724	0.794	0.676	0.646	0.688										
NCI-H1395						0.473	0.449	0.435		0.459	0.746	0.825	0.736	0.779	0.631	0.819	0.713	0.723	0.555	0.4
LK-2						0.803	0.682	0.576		0.817		0.191	0.2	0.175	0.151	0.16	0.15	0.141	0.173	0.148
NCI-H1299	1.04	1.02	1.14	0.612	0.485	0.94	0.972	0.988	0.73	0.761										
A549						0.407	0.368	0.222	0.344	0.263										
NCI-H1793						0.977	0.834	0.785	0.911	0.753	0.366	0.301	0.338	0.296	0.321	0.231	0.19	0.181	0.146	0.147
IA-LM	1.14	0.882	1.03	0.766	0.615	0.823	0.718	0.726	0.628	0.355										
